# Laboratory results as given in ChEMBL document CHEMBL1201862, “PubChem BioAssay data set” (2004).
#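 Five concentrations, 48 hours, 96-well plates. The concentration for 50% growth inhibition is given as GI50.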 The source made the active and inactive calls. Cut-off read from the data, not from the text of the source: active = GI50 up to about 1.1 µM and inactive = higher.
# Assays:
# Assay in all cases: NCI-60 cell line screen, 48 h
# 786-0 = test system: 786-0
# A498 = test system: A498
# A549 = test system: A549
# ACHN = test system: ACHN
# CCRF-CEM = test system: CCRF-CEM
# COLO 205 = test system: COLO 205
# DLD-1 = test system: DLD-1
# DMS-114 = test system: DMS-114
# DMS-273 = test system: DMS-273
# EKVX = test system: EKVX
# HCC 2998 = test system: HCC 2998
# HCT-116 = test system: HCT-116
# HCT-15 = test system: HCT-15
# HL-60 = test system: HL-60
# HOP-18 = test system: HOP-18
# HOP-62 = test system: HOP-62
# HOP-92 = test system: HOP-92
# HT-29 = test system: HT-29
# IGROV-1 = test system: IGROV-1
# K562 = test system: K562
# KM-20L2 = test system: KM-20L2
# KM12 = test system: KM12
# LOX IMVI = test system: LOX IMVI
# LXFL 529 = test system: LXFL 529
# M14 = test system: M14
# M19-MEL = test system: M19-MEL
# MOLT-4 = test system: MOLT-4
# Malme-3M = test system: Malme-3M
# NCI-H226 = test system: NCI-H226
# NCI-H23 = test system: NCI-H23
# NCI-H460 = test system: NCI-H460
# OVCAR-3 = test system: OVCAR-3
# OVCAR-4 = test system: OVCAR-4
# OVCAR-5 = test system: OVCAR-5
# OVCAR-8 = test system: OVCAR-8
# RPMI-8226 = test system: RPMI-8226
# RXF 393 = test system: RXF 393
# SF-268 = test system: SF-268
# SF-295 = test system: SF-295
# SF-539 = test system: SF-539
# SK-MEL-28 = test system: SK-MEL-28
# SK-MEL-2 = test system: SK-MEL-2
# SK-MEL-5 = test system: SK-MEL-5
# SK-OV-3 = test system: SK-OV-3
# SN12C = test system: SN12C
# SNB-19 = test system: SNB-19
# SNB-75 = test system: SNB-75
# SNB-78 = test system: SNB-78
# SR = test system: SR
# SW-620 = test system: SW-620
# TK-10 = test system: TK-10
# U-251 = test system: U-251
# UACC-257 = test system: UACC-257
# UACC-62 = test system: UACC-62
# UO-31 = test system: UO-31
# XF498 = test system: XF498
# CAKI-1 = test system: CAKI-1
# NCI-H522 = test system: NCI-H522
compound,measurement,setting,value
CCOC(=O)N1C2C=C(C)C(ON2C(=O)c2ccccc2)C2C(C)C(=O)N21 (centres undefined),GI50,786-0,> 100 µM (inactive)
same,GI50,A498,> 100 µM (inactive)
same,GI50,A549,> 100 µM (inactive)
same,GI50,ACHN,> 100 µM (inactive)
same,GI50,CCRF-CEM,> 100 µM (inactive)
same,GI50,COLO 205,> 100 µM (inactive)
same,GI50,DLD-1,> 100 µM (inactive)
same,GI50,DMS-114,> 100 µM (inactive)
same,GI50,DMS-273,> 100 µM (inactive)
same,GI50,EKVX,> 100 µM (inactive)
same,GI50,HCC 2998,> 100 µM (inactive)
same,GI50,HCT-116,> 100 µM (inactive)
same,GI50,HCT-15,> 100 µM
same,GI50,HL-60,> 100 µM (inactive)
same,GI50,HOP-18,> 100 µM (inactive)
same,GI50,HOP-62,> 100 µM (inactive)
same,GI50,HOP-92,> 100 µM (inactive)
same,GI50,HT-29,> 100 µM (inactive)
same,GI50,IGROV-1,> 100 µM (inactive)
same,GI50,K562,> 100 µM (inactive)
same,GI50,KM-20L2,> 100 µM (inactive)
same,GI50,KM12,> 100 µM (inactive)
same,GI50,LOX IMVI,> 100 µM (inactive)
same,GI50,LXFL 529,> 100 µM (inactive)
same,GI50,M14,> 100 µM (inactive)
same,GI50,M19-MEL,> 100 µM (inactive)
same,GI50,MOLT-4,> 100 µM (inactive)
same,GI50,Malme-3M,> 100 µM (inactive)
same,GI50,NCI-H226,> 100 µM (inactive)
same,GI50,NCI-H23,> 100 µM (inactive)
same,GI50,NCI-H460,> 100 µM (inactive)
same,GI50,OVCAR-3,> 100 µM (inactive)
same,GI50,OVCAR-4,> 100 µM (inactive)
same,GI50,OVCAR-5,> 100 µM (inactive)
same,GI50,OVCAR-8,> 100 µM (inactive)
same,GI50,RPMI-8226,> 100 µM (inactive)
same,GI50,RXF 393,> 100 µM (inactive)
same,GI50,SF-268,> 100 µM (inactive)
same,GI50,SF-295,> 100 µM (inactive)
same,GI50,SF-539,> 100 µM (inactive)
same,GI50,SK-MEL-28,> 100 µM (inactive)
same,GI50,SK-MEL-2,> 100 µM (inactive)
same,GI50,SK-MEL-5,> 100 µM (inactive)
same,GI50,SK-OV-3,> 100 µM (inactive)
same,GI50,SN12C,> 100 µM (inactive)
same,GI50,SNB-19,> 100 µM (inactive)
same,GI50,SNB-75,23.6 µM (inactive)
same,GI50,SNB-78,> 100 µM (inactive)
same,GI50,SR,> 100 µM (inactive)
same,GI50,SW-620,> 100 µM (inactive)
same,GI50,TK-10,> 100 µM (inactive)
same,GI50,U-251,> 100 µM (inactive)
same,GI50,UACC-257,> 100 µM (inactive)
same,GI50,UACC-62,> 100 µM (inactive)
same,GI50,UO-31,> 100 µM (inactive)
same,GI50,XF498,> 100 µM (inactive)
CC(=O)O[C@H]1C(=O)[C@@]2(C)C(C(OC(=O)c3ccccc3)[C@]3(O)CC(OC(=O)C(O)C(NC(=O)c4ccccc4)c4ccc(C)cc4)C(C)=C1C3(C)C)[C@]1(OC(C)=O)CO[C@@H]1C[C@@H]2O (some centres undefined),GI50,786-0,0.073 µM (active)
same,GI50,A498,12 µM (inactive)
same,GI50,A549,0.0179 µM (active)
same,GI50,ACHN,0.466 µM (active)
same,GI50,CAKI-1,0.104 µM (active)
same,GI50,CCRF-CEM,0.0147 µM (active)
same,GI50,COLO 205,0.0153 µM (active)
same,GI50,DLD-1,0.186 µM (active)
same,GI50,DMS-114,0.0197 µM (active)
same,GI50,DMS-273,0.0123 µM (active)
same,GI50,EKVX,8.95 µM (inactive)
same,GI50,HCT-116,0.00938 µM (active)
same,GI50,HCT-15,0.897 µM
same,GI50,HL-60,0.0069 µM (active)
same,GI50,HOP-18,4.01 µM (inactive)
same,GI50,HOP-62,0.0995 µM (active)
same,GI50,HOP-92,0.565 µM (active)
same,GI50,HT-29,0.0094 µM (active)
same,GI50,IGROV-1,0.0215 µM (active)
same,GI50,K562,0.0308 µM (active)
same,GI50,KM-20L2,0.031 µM (active)
same,GI50,KM12,0.0137 µM (active)
same,GI50,LOX IMVI,0.033 µM (active)
same,GI50,LXFL 529,0.0199 µM (active)
same,GI50,M14,0.0161 µM (active)
same,GI50,M19-MEL,0.0195 µM (active)
same,GI50,MOLT-4,0.0163 µM (active)
same,GI50,Malme-3M,0.0538 µM (active)
same,GI50,NCI-H23,0.0251 µM (active)
same,GI50,NCI-H460,0.00826 µM (active)
same,GI50,NCI-H522,0.0108 µM (active)
same,GI50,OVCAR-3,0.00673 µM (active)
same,GI50,OVCAR-4,3.75 µM (inactive)
same,GI50,OVCAR-5,0.0618 µM (active)
same,GI50,OVCAR-8,0.00979 µM (active)
same,GI50,RPMI-8226,0.0117 µM (active)
same,GI50,RXF 393,0.0074 µM (active)
same,GI50,SF-268,3.64 µM (inactive)
same,GI50,SF-295,0.0787 µM (active)
same,GI50,SF-539,0.0106 µM (active)
same,GI50,SK-MEL-2,0.0179 µM (active)
same,GI50,SK-OV-3,0.0117 µM (active)
same,GI50,SN12C,0.0545 µM (active)
same,GI50,SNB-19,0.0243 µM (active)
same,GI50,SNB-75,0.0531 µM (active)
same,GI50,SNB-78,0.507 µM (active)
same,GI50,SW-620,0.00555 µM (active)
same,GI50,TK-10,3.08 µM (inactive)
same,GI50,U-251,0.0197 µM (active)
same,GI50,UACC-257,0.0656 µM (active)
same,GI50,UACC-62,0.043 µM (active)
same,GI50,UO-31,2 µM (inactive)
same,GI50,XF498,0.0025 µM (active)
